Key:
[1] = biological target: recombinant BACE2 protein (Homo sapiens (Human), UniProt Q9Y5Z0); experiment: BACE2 Biochemical FRET based assay; details: 0.4 μg/ml BACE2, 10 μM substrate, 450 min, pH 5.0
From the text: (§1) This assay is a Fluorescence Resonance Energy Transfer Assay (FRET) based assay. The substrate for this assay contains the ‘Swedish’ Lys-Met/Asn-Leu mutation of the amyloid precursor protein (APP) beta-secretase cleavage site. This substrate also contains two fluorophores: (7-methoxycoumarin-4-yl) acetic acid (Mca) is a fluorescent donor with excitation wavelength at 320 nm and emission at 405 nm and 2,4-Dinitrophenyl (Dnp) is a proprietary quencher acceptor. […] Upon cleavage by the beta-secretase, the fluorophore Mca is separated from the quenching group Dnp, restoring the full fluorescence yield of the donor. The increase in fluorescence is linearly related to the rate of proteolysis.
Briefly in a 384-well format recombinant BACE2 protein in a final concentration of 0.4 μg/ml is incubated for 450 minutes at room temperature with 10 μM substrate in incubation buffer (50 mM Citrate buffer pH 5.0, 0.05% PEG, no DMSO) in the absence or presence of compound. Next the amount of proteolysis is directly measured by fluorescence measurement at T=0 and T=450 (excitation at 320 nm and emission at 405 nm). Results are expressed in RFU (Relative Fluorescence Units), as difference between T450 and TO.

[2] = tested on: brain levels of soluble Aβ42, Aβ40; experiment: In vivo Aβ lowering in non-transgenic rodents (MSD electrochemiluminescence); set-up: species or system mouse; details: dose 10, s.c., untreated control = 100
From the text: To determine whether acute administration of an Aβ lowering agent would reduce Aβ levels in vivo, non-transgenic rodents, e.g. mice or rats were used. Animals treated with the Aβ lowering agent were examined and compared to those untreated or treated with vehicle and brain levels of soluble Aβ42, Aβ40, Aβ38, and Aβ37 were quantitated by Meso Scale Discovery's (MSD) electrochemiluminescence detection technology. Treatment periods varied from hours (h) to days and were adjusted based on the results of the Aβ lowering once a time course of onset of effect could be established.
A typical protocol for measuring Aβ lowering in vivo is shown but it is only one of many variations that could be used to optimize the levels of detectable A. For example, Aβ lowering compounds were formulated in 20% of Captisol® (a sulfo-butyl ether of β-cyclodextrin) in water or 20% hydroxypropyl β cyclodextrin. The Aβ lowering agents were administered as a single oral dose or by any acceptable route of administration to overnight fasted animals. […]
Blood was collected by decapitation and exsanguinations in EDTA-treated collection tubes. Blood was centrifuged at 1900 g for 10 minutes (min) at 4° C. and the plasma recovered and flash frozen for later analysis. The brain was removed from the cranium and hindbrain. The cerebellum was removed and the left and right hemisphere were separated. The left hemisphere was stored at −18° C. for quantitative analysis of test compound levels. The right hemisphere was rinsed with phosphate-buffered saline (PBS) buffer and immediately frozen on dry ice and stored at −80° C. until homogenization for biochemical assays.
Mouse brains from non-transgenic animals were resuspended in 8 volumes of 0.4% DEA (diethylamine)/50 mM NaCl containing protease inhibitors (Roche-11873580001 or 04693159001) per gram of tissue, e.g. for 0.158 g brain, add 1.264 ml of 0.4% DEA. All samples were homogenized in the FastPrep-24 system (MP Biomedicals) using lysing matrix D (MPBio #6913-100) at 6 m/s for 20 seconds. Homogenates were centrifuged at 20800×g for 5 min and supernatants collected. Supernatants were centrifuged at 221.300×g for 50 min. The resulting high speed supernatants were then transferred to fresh eppendorf tubes. Nine parts of supernatant were neutralized with 1 part 0.5 M Tris-HCl pH 6.8 and used to quantify Aβ.
To quantify the amount of Aβ42, Aβ40, Aβ38, and Aβ37 in the soluble fraction of the brain homogenates, simultaneous specific detection of Aβ42, Aβ40, Aβ38, and Aβ37 was performed using MSD's electro-chemiluminescence multiplex detection technology. In this assay purified monoclonal antibodies specific for Abeta37 (JRD/Aβ37/3), Abeta38 (J&JPRD/Aβ38/5), Abeta40 (JRF/cAβ40/28), and Abeta42 (JRF/cAβ(342/26) were coated on MSD 4-plex plates. Briefly, the standards (a dilution of synthetic Aβ42, Aβ40, Aβ38, and Aβ37) were prepared in 1.5 ml Eppendorf tube in Ultraculture, with final concentrations ranging from 10000 to 0.3 pg/m. The samples and standards were co-incubated with Sulfo-tag labelled JRF/rAβ/2 antibody to the N-terminus of Aβ as detector antibody. 50 μl of conjugate/sample or conjugate/standards mixtures were then added to the antibody-coated plate. The plate was allowed to incubate overnight at 4° C. in order to allow formation of the antibody-amyloid complex. Following this incubation and subsequent wash steps the assay was finished by adding read buffer according to the manufacturer's instructions (Meso Scale Discovery, Gaitherburg, Md.).
The SULFO-TAG emits light upon electrochemical stimulation initiated at the electrode. MSD Sector instrument SI6000 was used for signal read-out.
The results are shown in Table 8 (value for untreated animals as control (Ctrl) was set at 100): […]

[3] = biological target: recombinant BACE1 protein (Homo sapiens (Human), UniProt P56817); experiment: BACE1 Biochemical FRET based assay - Method 1; details: 1 μg/ml BACE1, 10 μM substrate, 120 min, pH 5.0; read-out: BACE1 Biochemical FRET based assay - Method 1 pIC50 (converted)
From the text: as §1, with “this assay is an APP derived 13 amino acids peptide that contains the” for “this assay contains the”, “cleavage by BACE1, the fluorophore” for “cleavage by the beta-secretase, the fluorophore”
Briefly in a 384-well format recombinant BACE1 protein in a final concentration of 1 μg/ml is incubated for 120 minutes at room temperature with […] substrate in incubation buffer (40 mM Citrate buffer pH 5.0, 0.04% PEG, 4% DMSO) in the absence or presence of compound. Next the amount of proteolysis is directly measured by fluorescence measurement at T=0 and T=120 (excitation at 320 nm and emission at 405 nm). Results are expressed in RFU (Relative Fluorescence Units), as difference between T120 and TO.

Sequence of recombinant BACE1 protein (P56817 46-501): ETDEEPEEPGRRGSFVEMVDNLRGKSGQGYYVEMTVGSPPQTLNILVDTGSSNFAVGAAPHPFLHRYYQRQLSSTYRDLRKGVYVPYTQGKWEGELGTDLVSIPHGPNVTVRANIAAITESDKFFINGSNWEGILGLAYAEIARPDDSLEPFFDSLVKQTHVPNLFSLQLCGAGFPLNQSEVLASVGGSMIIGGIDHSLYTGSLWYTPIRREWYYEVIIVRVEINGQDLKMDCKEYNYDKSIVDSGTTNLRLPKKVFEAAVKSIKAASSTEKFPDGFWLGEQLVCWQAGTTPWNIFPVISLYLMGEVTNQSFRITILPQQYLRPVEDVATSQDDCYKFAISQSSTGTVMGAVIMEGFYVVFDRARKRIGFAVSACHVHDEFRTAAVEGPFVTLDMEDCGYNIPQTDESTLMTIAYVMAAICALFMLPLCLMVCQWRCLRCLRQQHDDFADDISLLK
Sequence of recombinant BACE2 protein (Q9Y5Z0 63-518): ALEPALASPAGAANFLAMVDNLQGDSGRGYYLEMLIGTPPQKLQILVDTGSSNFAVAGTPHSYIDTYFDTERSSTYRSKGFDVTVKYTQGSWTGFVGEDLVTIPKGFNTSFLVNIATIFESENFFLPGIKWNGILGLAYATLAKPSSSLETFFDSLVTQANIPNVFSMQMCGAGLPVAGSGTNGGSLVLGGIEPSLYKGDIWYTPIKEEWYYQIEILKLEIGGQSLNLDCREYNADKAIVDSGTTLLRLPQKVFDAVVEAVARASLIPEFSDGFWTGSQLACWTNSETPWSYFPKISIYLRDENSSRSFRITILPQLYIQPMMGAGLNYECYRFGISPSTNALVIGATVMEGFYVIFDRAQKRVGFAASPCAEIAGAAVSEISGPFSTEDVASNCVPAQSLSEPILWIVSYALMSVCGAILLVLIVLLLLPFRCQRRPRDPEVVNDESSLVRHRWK

BACE2 Biochemical FRET based assay pIC50 [1]: 8.48 | IC50 [3]: 5.25 nM
Compound: C[C@@]1(c2cc(NC(=O)c3ccc(F)cn3)ccc2F)Cn2nncc2C(N)=N1 [Compound 1, N-{3-[(6R)-4-amino-6-methyl-6,7-dihydro[1,2,3]triazolo[1,5-a]pyrazin-6-yl]-4-fluorophenyl}-5-fluoropyridine-2-carboxamide]
Aβ40 (% vs Ctrl)_Mean ([2]; 2 h after administration): 47 % vs Ctrl | Aβ42 (% vs Ctrl)_Mean ([2]; 2 h after administration): 47 % vs Ctrl | Aβ40 (% vs Ctrl)_Mean ([2]; 4 h after administration): 73 % vs Ctrl | Aβ42 (% vs Ctrl)_Mean ([2]; 4 h after administration): 55 % vs Ctrl

From patent US9751886B2, “4-amino-6-phenyl-6,7-dihydro[1,2,3]triazolo[1,5-A]pyrazine derivatives as inhibitors of beta-secretase (BACE)” (Janssen Pharmaceutica NV, priority 2013, dated 2017)
